The record followed here is US8859546B2, “Picolinamide inhibitors of kinases” (AbbVie Inc., priority 2011, dated 2014).

T1 sequence (Q9UM73 19-1620): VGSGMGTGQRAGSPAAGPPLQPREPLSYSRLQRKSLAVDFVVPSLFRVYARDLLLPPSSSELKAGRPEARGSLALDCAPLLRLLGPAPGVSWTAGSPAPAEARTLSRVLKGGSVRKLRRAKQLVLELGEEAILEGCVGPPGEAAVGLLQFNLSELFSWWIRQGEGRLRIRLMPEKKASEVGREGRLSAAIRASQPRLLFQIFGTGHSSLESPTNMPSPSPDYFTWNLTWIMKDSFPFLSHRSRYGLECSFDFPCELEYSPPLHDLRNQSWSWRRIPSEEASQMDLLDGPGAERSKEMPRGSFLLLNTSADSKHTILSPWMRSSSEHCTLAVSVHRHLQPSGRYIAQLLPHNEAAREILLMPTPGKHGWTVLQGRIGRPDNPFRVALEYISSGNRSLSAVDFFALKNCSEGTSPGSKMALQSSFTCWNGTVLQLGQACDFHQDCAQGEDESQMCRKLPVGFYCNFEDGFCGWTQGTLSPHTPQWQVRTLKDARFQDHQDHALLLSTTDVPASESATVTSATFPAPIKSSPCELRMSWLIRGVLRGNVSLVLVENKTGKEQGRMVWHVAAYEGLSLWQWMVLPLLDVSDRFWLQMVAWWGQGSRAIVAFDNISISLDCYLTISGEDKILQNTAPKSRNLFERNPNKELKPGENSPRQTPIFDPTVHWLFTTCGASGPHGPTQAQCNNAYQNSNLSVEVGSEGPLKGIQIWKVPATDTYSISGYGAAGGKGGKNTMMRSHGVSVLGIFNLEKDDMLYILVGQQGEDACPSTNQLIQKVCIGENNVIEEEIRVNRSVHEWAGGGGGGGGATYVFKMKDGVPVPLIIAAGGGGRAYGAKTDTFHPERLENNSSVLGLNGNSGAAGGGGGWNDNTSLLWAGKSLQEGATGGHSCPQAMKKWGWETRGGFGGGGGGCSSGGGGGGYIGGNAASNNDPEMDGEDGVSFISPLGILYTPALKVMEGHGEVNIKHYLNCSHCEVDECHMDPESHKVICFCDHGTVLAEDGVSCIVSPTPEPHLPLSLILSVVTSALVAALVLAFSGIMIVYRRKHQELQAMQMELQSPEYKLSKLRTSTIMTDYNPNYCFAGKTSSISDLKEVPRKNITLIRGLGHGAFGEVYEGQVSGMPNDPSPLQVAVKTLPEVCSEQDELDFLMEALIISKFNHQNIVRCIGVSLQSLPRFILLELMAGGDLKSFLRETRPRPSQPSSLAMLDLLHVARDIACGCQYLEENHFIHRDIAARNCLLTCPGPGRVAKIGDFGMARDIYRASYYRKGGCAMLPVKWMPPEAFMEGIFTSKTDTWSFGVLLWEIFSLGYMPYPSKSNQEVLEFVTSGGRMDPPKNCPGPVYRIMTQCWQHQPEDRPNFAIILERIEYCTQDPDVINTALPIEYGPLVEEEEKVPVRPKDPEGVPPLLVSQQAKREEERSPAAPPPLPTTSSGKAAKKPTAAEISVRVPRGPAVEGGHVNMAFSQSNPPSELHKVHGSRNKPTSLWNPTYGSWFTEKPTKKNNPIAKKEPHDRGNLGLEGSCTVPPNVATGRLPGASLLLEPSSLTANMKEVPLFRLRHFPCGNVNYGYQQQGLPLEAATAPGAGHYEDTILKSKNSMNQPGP

The experiment concerns the target T1, ALK (Homo sapiens, UniProt Q9UM73).
T1 construct: purchased Millipore
Put plainly: ALK kinase assay (HTRF), apparent Ki. It is filed as biochemical. To be noted: apparent Ki from IC50 by Cheng-Prusoff; ALK (Millipore), 50 μM ATP; read-out: HTRF_ALK Human-Ki. On the procedure: The following procedure is used to determine ALK Activity.
ALK kinase assays were conducted with the indicated final concentrations unless otherwise specified. In 384 well black plates (Axygen), 8 μl of compound (2% DMSO) was incubated with 8 μl Lck-peptide substrate (0.5 μM, biotin-Ahx-GAEEEIYAAFFA-COOH) and 8 μl of a mixture of ALK (3 nM, Millipore) and ATP (50 μM) in reaction buffer (50 mM Hepes, pH 7.4; 10 mM MgCl2; 2 mM MnCl2; 0.1 mM sodium orthovanadate; 0.01% BSA and 1 mM DTT (added fresh before assay) for 1 h at room temperature. Reactions were then quenched by the addition of 30 μl quench solution (streptavidin-allophycocyanin and Europium-cryptate PT66 monoclonal antibody in 40 mM Hepes, pH 7.4; 480 mM KF; 66 mM EDTA; 0.01% Tween-20; and 0.1% BSA) at room temperature. Plates were read 1 h after quenching on an Envision Multilaber Reader and IC50 values were calculated using a sigmoidal fit of the concentration/inhibition response curves. These values were converted to apparent Ki values using the Cheng-Prusoff relationship.
Alternatively, 4 nM ALK (Millipore) and 50 μM ATP were pre-incubated for 30 min at room temperate in 384 well plates (Corning 3676) in 2.5× reaction buffer (125 nM SEB from Cisbio Bioassays, 12.5 mM MgCl2, 5 mM MnCl2, and 2.5 mM DTT). Reactions were initiated by the addition of 4 μl ALK-ATP mixture to 2 μl compounds (2% DMSO) and 4 μl TK-substrate biotin (Cisbio Bioassays). After incubation for 1 h at room temperature, reactions were quenched in 10 μl stop buffer (Cisbio detection buffer containing Streptavididn-XL665 and Eu-Cryptate PT66 monoclonal antibody). Plates were read 1 h after quenching on an Envision Multilaber Reader and IC50 values were calculated using a sigmoidal fit of the concentration/inhibition response curves. These values were converted to apparent Ki values using the Cheng-Prusoff relationship. Results are shown in Table 1 A correlates to an Ki=<100 nM, B correlates to an Ki between 100 nM and 1 μM, C correlates to an Ki=>1 μM.
In general terms: In TR-FRET formats the signal depends on donor and acceptor labels being close together.
`CN1CCN(c2ccc(Nc3cc(Cc4ccccc4)cnc3C(N)=O)cc2Cl)CC1` [Example 7, 5-benzyl-3-{[3-chloro-4-(4-methylpiperazin-1-yl)phenyl]amino}pyridine-2-carboxamide]: the Ki fell in the range of 100 to 1000 nM.
Consider `COc1cc(N2CCNCC2)ccc1Nc1cc(Cc2c(F)ccc(F)c2Cl)cnc1C(N)=O` [Example 48, 5-(2-chloro-3,6-difluorobenzyl)-3-{[2-methoxy-4-(piperazin-1-yl)phenyl]amino}pyridine-2-carboxamide], for which the Ki lay in the range of 100 to 1000 nM.
Turning to `CN1CCN(c2ccc(Nc3cc(-c4cccc(NS(C)(=O)=O)c4)cnc3C(N)=O)cc2)CC1` [Example 54, 3-{[4-(4-methylpiperazin-1-yl)phenyl]amino}-5-{3-[(methylsulfonyl)amino]phenyl}pyridine-2-carboxamide], the Ki is less than 100 nM.
In the case of `Cc1ccccc1-c1cnc(C(N)=O)c(Nc2ccc(N3CCN(C)CC3)cc2)c1` [Example 49, 5-(2-methylphenyl)-3-{[4-(4-methylpiperazin-1-yl)phenyl]amino}pyridine-2-carboxamide], the Ki is 100 to 1000 nM.
On to `COc1cc(N2CCN(C)CC2)ccc1Nc1cc(Cc2c(F)cccc2Cl)cnc1C(N)=O` [Example 46, 5-(2-chloro-6-fluorobenzyl)-3-{[2-methoxy-4-(4-methylpiperazin-1-yl)phenyl]amino}pyridine-2-carboxamide], for which the Ki lay within 100 to 1000 nM.
As for `CN1CCN(c2ccc(Nc3cc(-c4cccc(C(=O)N(C)C)c4)cnc3C(N)=O)cc2)CC1` [Example 62, 5-[3-(dimethylcarbamoyl)phenyl]-3-{[4-(4-methylpiperazin-1-yl)phenyl]amino}pyridine-2-carboxamide], the Ki lay in the range of 100 to 1000 nM.
For `CN1CCN(c2ccc(Nc3cc(Cc4cc(F)ccc4F)cnc3C(N)=O)cc2)CC1` [Example 21, 5-(2,5-difluorobenzyl)-3-{[4-(4-methylpiperazin-1-yl)phenyl]amino}pyridine-2-carboxamide] the value was less than 100 nM.
For the compound `CN1CCN(c2ccc(Nc3cc(-c4cccc(C#N)c4)cnc3C(N)=O)cc2)CC1` [Example 59, 5-(3-cyanophenyl)-3-{[4-(4-methylpiperazin-1-yl)phenyl]amino}pyridine-2-carboxamide], the Ki was more than 1000 nM.
In the case of `Cc1cc(N2CCN(C)CC2)ccc1Nc1cc(Cc2ccccc2)cnc1C(N)=O` [Example 9, 5-benzyl-3-{[2-methyl-4-(4-methylpiperazin-1-yl)phenyl]amino}pyridine-2-carboxamide], the Ki is 100 to 1000 nM.
For the compound `CN1CCN(c2ccc(Nc3cc(Cc4ccccc4-c4ccccc4)cnc3C(N)=O)cc2)CC1` [Example 32, 5-(biphenyl-2-ylmethyl)-3-{[4-(4-methylpiperazin-1-yl)phenyl]amino}pyridine-2-carboxamide], the Ki is 100 to 1000 nM.
Take `COc1cccc(Cc2cnc(C(N)=O)c(Nc3ccc(N4CCN(C)CC4)cc3)c2)c1` [Example 22, 5-(3-methoxybenzyl)-3-{[4-(4-methylpiperazin-1-yl)phenyl]amino}pyridine-2-carboxamide]: the Ki was in the range of 100 to 1000 nM.
As for `CN1CCN(c2ccc(Nc3cc(Cc4cccc(Cl)c4)cnc3C(N)=O)cc2)CC1` [Example 24, 5-(3-chlorobenzyl)-3-{[4-(4-methylpiperazin-1-yl)phenyl]amino}pyridine-2-carboxamide], the Ki was in the range of 100 to 1000 nM.
For `COc1ccc(Cc2cnc(C(N)=O)c(Nc3ccc(N4CCN(C)CC4)cc3)c2)cc1` [Example 16, 5-(4-methoxybenzyl)-3-{[4-(4-methylpiperazin-1-yl)phenyl]amino}pyridine-2-carboxamide], the Ki is 100 to 1000 nM.
Take `CCN1CCN(c2ccc(Nc3cc(Cc4c(F)cccc4Cl)cnc3C(N)=O)c(OC)c2)CC1` [Example 47, 5-(2-chloro-6-fluorobenzyl)-3-{[4-(4-ethylpiperazin-1-yl)-2-methoxyphenyl]amino}pyridine-2-carboxamide]: the Ki is less than 100 nM.
With `Cc1cccc(Cc2cnc(C(N)=O)c(Nc3ccc(N4CCN(C)CC4)cc3)c2)c1` [Example 26, 5-(3-methylbenzyl)-3-{[4-(4-methylpiperazin-1-yl)phenyl]amino}pyridine-2-carboxamide], the Ki was in the range of 100 to 1000 nM.
